According to the supplement of paper PMC10331698:
± gives the standard deviation of the averaged measurements.

Key:
Assay in all cases: level (log10 ratio to DMSO vehicle control); higher = higher biomarker level / cell amount than vehicle control
Conditions in all cases: in DMSO
[1] = compound: O=S(=O)(Cl)C(F)(F)C(F)(F)C(F)(F)C(F)(F)C(F)(F)C(F)(F)C(F)(F)C(F)(F)F [Perfluoro-1-octanesulfonyl chloride]
Experimental: (§1)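 BioMAP Diversity Plus panel of 12 human primary cell co-culture systems (3C, 4H, LPS, SAg, BT, BF4T, BE3C, CASM3C, HDF3CGF, KF3CT, MyoF, Mphg). Compounds were added 1 h before stimulation and left for 24 h (MyoF 48 h; BT 72 h for soluble read-outs or 6 d for IgG). Biomarkers were read by ELISA, cytotoxicity by SRB, PBMC viability and proliferation by Alamar Blue. Each well value was divided by the mean of 8 DMSO control wells on the same plate and log10 transformed; duplicate blinded samples were tested at 4 concentrations.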

[2] = compound: FC(F)(F)C(F)(F)CNCC(F)(F)C(F)(F)F [Bis(1H,1H-perfluoropropyl)amine]
Experimental: as §1

[3] = compound: O=S(=O)(O)C(F)(F)C(F)(F)C(F)(F)C(F)(F)C(F)(F)C(F)(F)C(F)(F)C(F)(F)C(F)(F)C(F)(F)F [Sodium perfluorodecanesulfonate]
Experimental: as §1

[4] = compound: FC(F)(F)C(F)(F)C(F)(F)C(F)(F)C(F)(F)C(F)(F)CC1CO1 [3-(Perfluorohexyl)-1,2-epoxypropane]
Experimental: as §1

[5] = compound: NS(=O)(=O)C(F)(F)C(F)(F)C(F)(F)C(F)(F)C(F)(F)C(F)(F)F [Perfluorohexanesulfonamide]
Experimental: as §1

[6] = compound: C=C(C)C(=O)OCCC(F)(F)C(F)(F)C(F)(F)C(F)(F)C(F)(F)C(F)(F)F [6:2 Fluorotelomer methacrylate]
Experimental: as §1

Row | Test System | level (log10) ([1]; 6700 nM) | level (log10) ([1]; 20000 nM) | level (log10) ([1]; 60000 nM) | level (log10) ([2]; 6700 nM) | level (log10) ([2]; 20000 nM) | level (log10) ([2]; 60000 nM) | level (log10) ([3]; 1500 nM) | level (log10) ([3]; 4400 nM) | level (log10) ([3]; 13000 nM) | level (log10) ([3]; 40000 nM) | level (log10) ([4]; 6700 nM) | level (log10) ([4]; 20000 nM) | level (log10) ([4]; 60000 nM) | level (log10) ([5]; 6700 nM) | level (log10) ([5]; 20000 nM) | level (log10) ([5]; 60000 nM) | level (log10) ([6]; 6700 nM) | level (log10) ([6]; 20000 nM) | level (log10) ([6]; 60000 nM)
1 | 4H:CD87/uPAR | -0.0165 ± 0.054 | -0.023 ± 0.048 | -0.117 ± 0.053 | -0.0665 ± 0.029 | -0.027 ± 0.035 | -0.047 ± 0.064 | 0.0235 ± 0.056 | 0.0145 ± 0.022 | 0.0455 ± 0.0064 | 0.0065 ± 0.013 | 0.0645 ± 0.044 | 0.0775 ± 0.018 | 0.107 ± 0.022 | -0.01 ± 0.011 | 0.0115 ± 0.013 | -0.0605 ± 0.047 | -0.015 ± 0.025 | 0.0015 ± 0.019 | -0.0095 ± 0.0035
2 | HDF3CGF:Collagen I | 0.001 ± 0.0057 | -0.01 ± 0.0071 | 0.0135 ± 0.066 | -0.0295 ± 0.015 | -0.015 ± 0.017 | 0.0085 ± 0.056 | -0.0095 ± 0.012 | -0.01 | 0.067 ± 0.011 | 0.0845 ± 0.042 | -0.001 ± 0.025 | -0.0145 ± 0.012 | 0.0545 ± 0.04 | 0.005 ± 0.035 | 0.0075 ± 0.011 | -0.0435 ± 0.015 | -0.0655 ± 0.022 | -0.0695 ± 0.049 | 0.0095 ± 0.097
3 | 4H:CCL2/MCP-1 | -0.0125 ± 0.021 | -0.0475 ± 0.0035 | -0.11 ± 0.12 | -0.0345 ± 0.012 | -0.035 ± 0.0042 | -0.0105 ± 0.026 | -0.0285 ± 0.0078 | -0.045 ± 0.0057 | -0.0725 ± 0.028 | -0.05 ± 0.0057 | 0.03 ± 0.0099 | -0.0175 ± 0.0064 | 0.0125 ± 0.019 | 0.002 ± 0.027 | -0.033 ± 0.0028 | -0.136 ± 0.031 | -0.009 ± 0.0014 | 0.007 ± 0.0085 | -0.006 ± 0.0057
4 | BE3C:PAI-I | 0.0265 ± 0.011 | 0.0055 ± 0.019 | -0.416 ± 0.054 | -0.0395 ± 0.00071 | -0.022 ± 0.0057 | -0.0075 ± 0.023 | -0.0925 ± 0.036 | -0.106 ± 0.022 | -0.26 ± 0.058 | -0.406 ± 0.013 | -0.003 ± 0.0014 | -0.006 ± 0.0028 | 0.013 ± 0.0099 | -0.055 ± 0.062 | -0.087 ± 0.079 | -0.165 ± 0.068 | -0.0115 ± 0.037 | -0.019 ± 0.034 | -0.016 ± 0.033
5 | lMphg:SRB | -0.004 ± 0.0014 | -0.004 ± 0.011 | -0.002 ± 0.0071 | -0.0085 ± 0.00071 | -0.007 ± 0.0028 | 0.009 ± 0.018 | -0.0075 ± 0.012 | -0.0025 ± 0.00071 | -0.001 ± 0.0099 | -0.011 ± 0.0099 | -0.012 ± 0.0042 | -0.016 ± 0.0071 | 0.0115 ± 0.005 | -0.007 ± 0.0042 | -0.015 ± 0.0028 | -0.0645 ± 0.0064 | -0.0065 ± 0.025 | -0.0115 ± 0.015 | -0.0175 ± 0.00071
6 | 3C:CCL2/MCP-1 | -0.009 ± 0.0085 | -0.0025 ± 0.0092 | 0.017 ± 0.0014 | 0.004 ± 0.031 | -0.0225 ± 0.012 | 0.006 ± 0.016 | 0.0315 ± 0.005 | -0.0195 ± 0.026 | 0.005 ± 0.033 | 0.0655 ± 0.032 | 0.011 ± 0.02 | -0.004 ± 0.0014 | 0.021 ± 0.031 | 0.0075 ± 0.0021 | 0.001 ± 0.014 | -0.0255 ± 0.032 | 0.01 ± 0.051 | -0.0025 ± 0.016 | 0.022 ± 0.028
7 | CASM3C:LDLR | -0.0105 ± 0.005 | -0.011 ± 0.017 | 0.0095 ± 0.037 | -0.005 ± 0.0099 | -0.0065 ± 0.0021 | -0.001 ± 0.025 | 0.0155 ± 0.028 | -0.015 | -0.0425 ± 0.018 | -0.0055 ± 0.035 | -0.003 ± 0.02 | 0.0105 ± 0.012 | 0.025 ± 0.014 | -0.003 ± 0.014 | -0.0105 ± 0.005 | -0.04 ± 0.011 | -0.0185 ± 0.026 | -0.001 ± 0.025 | -0.016 ± 0.0099
8 | 4H:CD62P/P-selectin | 0.0315 ± 0.012 | 0.0485 ± 0.018 | 0.084 ± 0.031 | -0.0155 ± 0.025 | -0.02 ± 0.0028 | 0.005 ± 0.013 | -0.0165 ± 0.021 | 0.034 ± 0.018 | 0.064 ± 0.03 | 0.08 ± 0.033 | 0.0055 ± 0.016 | -0.0015 ± 0.019 | 0.013 ± 0.017 | -0.006 ± 0.014 | 0.055 ± 0.062 | -0.0045 ± 0.012 | -0.033 ± 0.072 | -0.0065 ± 0.044 | -0.01 ± 0.0014
9 | lMphg:SRB-Mphg | 0.0025 ± 0.013 | 0.004 ± 0.016 | -0.0185 ± 0.025 | -0.025 ± 0.03 | -0.058 ± 0.023 | -0.0025 ± 0.037 | -0.067 ± 0.12 | -0.0945 ± 0.083 | -0.119 ± 0.053 | -0.057 ± 0.13 | 0.0095 ± 0.0092 | 0.0035 ± 0.012 | 0.013 ± 0.0014 | 0.002 ± 0.0028 | -0.021 ± 0.0057 | -0.0625 ± 0.013 | 0.01 ± 0.011 | 0.0095 ± 0.0092 | 0.0105 ± 0.0021
10 | CASM3C:M-CSF | 0.008 ± 0.014 | 0.0095 ± 0.018 | 0.0425 ± 0.005 | 0.006 ± 0.016 | -0.005 ± 0.016 | 0.0115 ± 0.028 | 0.0465 ± 0.0064 | 0.0285 ± 0.0035 | 0.03 ± 0.014 | 0.14 ± 0.079 | -0.0025 ± 0.012 | -0.0125 ± 0.011 | 0.0325 ± 0.056 | 0.009 ± 0.035 | 0.0295 ± 0.012 | 0.119 ± 0.0035 | -0.004 ± 0.011 | 0.002 ± 0.0014 | 0.024 ± 0.021
11 | MyoF:alpha-SM Actin | 0.0635 ± 0.0064 | 0.0665 ± 0.032 | -0.0065 ± 0.03 | 0.0315 ± 0.037 | 0.0225 ± 0.046 | 0.0245 ± 0.043 | 0.01 ± 0.0057 | -0.0065 ± 0.013 | 0.006 ± 0.025 | 0.0175 ± 0.0021 | 0.0205 ± 0.015 | 0.0035 ± 0.0064 | 0.0185 ± 0.0035 | -0.003 ± 0.035 | 0.01 ± 0.033 | 0.004 ± 0.0057 | 0.003 ± 0.011 | -0.02 ± 0.038 | -0.0015 ± 0.018
12 | MyoF:Collagen III | -0.0155 ± 0.0035 | -0.0315 ± 0.00071 | -0.164 ± 0.035 | 0.003 ± 0.016 | 0.0025 ± 0.005 | -0.0035 ± 0.0092 | 0.0125 ± 0.037 | 0.02 ± 0.0057 | -0.0005 ± 0.0035 | -0.0455 ± 0.0021 | 0.007 ± 0.0028 | 0.003 ± 0.011 | 0.0065 ± 0.011 | 0.009 ± 0.0071 | 0.008 ± 0.0014 | 0.0025 ± 0.0035 | 0.008 ± 0.027 | 0.012 ± 0.0057 | 0.006 ± 0.017
13 | HDF3CGF:SRB | 0.015 ± 0.021 | -0.0095 ± 0.005 | -0.0345 ± 0.035 | -0.0275 ± 0.0078 | 0.008 ± 0.0014 | 0.0145 ± 0.05 | 0.014 ± 0.0099 | -0.0075 ± 0.035 | 0.104 ± 0.0092 | 0.198 | -0.001 ± 0.031 | -0.0035 ± 0.015 | -0.006 ± 0.04 | -0.0045 ± 0.0064 | -0.009 ± 0.052 | -0.002 ± 0.033 | 0.02 ± 0.0071 | 0.0315 ± 0.005 | 0.033 ± 0.013
14 | 4H:CD106/VCAM-1 | -0.0025 ± 0.052 | -0.0035 ± 0.023 | -0.0305 ± 0.0064 | 0.0125 ± 0.016 | 0.006 ± 0.035 | 0.0155 ± 0.039 | -0.018 ± 0.011 | -0.0295 ± 0.005 | -0.007 ± 0.0085 | -0.0615 ± 0.0092 | -0.002 ± 0.027 | -0.0225 ± 0.00071 | -0.0025 ± 0.011 | -0.0245 ± 0.011 | -0.0165 ± 0.015 | -0.08 ± 0.034 | -0.002 ± 0.021 | -0.013 ± 0.0099 | -0.0045 ± 0.015
15 | 3C:CXCL8/IL-8 | 0.013 ± 0.014 | 0.043 ± 0.013 | 0.16 ± 0.0099 | -0.0005 ± 0.0092 | 0.0005 ± 0.052 | 0.0445 ± 0.093 | 0.035 ± 0.035 | 0.021 ± 0.013 | 0.03 ± 0.017 | 0.0725 ± 0.013 | -0.002 ± 0.0085 | -0.004 ± 0.0014 | 0.035 ± 0.042 | 0.011 ± 0.023 | 0.0415 ± 0.0092 | 0.024 ± 0.013 | 0.018 ± 0.021 | 0.024 ± 0.016 | 0.0505 ± 0.018
